These results are taken from patent publication US20090291938A1 (TAKEDA PHARMACEUTICAL COMPANY LIMITED, priority 2007, published 2009).

A value given as a limit tells only on which side of the number the result lay.

The test system of the experiment is HT29 human colorectal adenocarcinoma cell line. Kind of experiment: cell proliferation assay (Cell Titer-Glo luminescent cell viability assay). Format: cell-based. The note with it: HT-29, cell proliferative assay, HT29 cells, 72 hr treatment, values given as ranges, read-out: pIC50 (converted). As for the experimental part:
The cell culture and proliferation assay may be carried out as follows: the HT29 human colorectal adenocarcinoma cell line (ATCC, USA) was maintained in Dulbecco's Modified Eagle's Medium (Invitrogen, USA) supplemented with 10% fetal bovine serum (JRH, USA). The cell proliferation assay was carried out with the Cell Titer-Glo luminescent cell viability assay (Promega, USA) according to the manufacture's instruction after the 72 hr treatment of the cells in the presence of the compounds. The cell viability was shown as a percentage of DMSO treated cells.
A general note: ATP-based viability assays read luminescence as a measure of living cells.
Regarding `CCC1(C)CN(C2CCCCC2)c2nc(Nc3ccc(C(=O)N[C@H]4CC[C@H](O)CC4)cc3OC)ncc2N(C)C1=O` (stereo partly drawn) [Compound 141, 4-(9-cyclohexyl-7-ethyl-5,7-dimethyl-6-oxo-6,7,8,9-tetrahydro-5H-pyrimido[4,5-b][1,4]diazepin-2-ylamino)-N-((1R,4R)-4-hydroxycyclohexyl)-3-methoxybenzamide], the IC50 is 3.16 to 10 nM.
The figure for `COc1cc(C(=O)N[C@H]2CCC(=O)NC2)ccc1Nc1ncc2c(n1)N(C1CCCC1)CCC(=O)N2C` [Compound 48, (S)-4-(9-cyclopentyl-5-methyl-6-oxo-6,7,8,9-tetrahydro-5H-pyrimido[4,5-b][1,4]diazepin-2-ylamino)-3-methoxy-N-(6-oxopiperidin-3-yl)benzamide] is greater than 10 nM; for `COc1cc(C(=O)N[C@H]2CCN(C)C2)ccc1Nc1ncc2c(n1)N(C1CCCC1)CC1(CC1)C(=O)N2C` [Compound 167, (S)-4-(9′-cyclopentyl-5′-methyl-6′-oxo-5′,6′,8′,9′-tetrahydrospiro[cyclopropane-1,7′-pyrimido[4,5-b][1,4]diazepine]-2′-ylamino)-3-methoxy-N-(1-methylpyrrolidin-3-yl)benzamide] it is 3.16 to 10 nM; for `COc1cc(C(=O)NC2CCCNCC2)ccc1Nc1ncc2c(n1)N(C1CCCCC1)CC(C)(C)C(=O)N2C` (stereo not shown) [Compound 119, N-(azepan-4-yl)-4-(9-cyclohexyl-5,7,7-trimethyl-6-oxo-6,7,8,9-tetrahydro-5H-pyrimido[4,5-b][1,4]diazepin-2-ylamino)-3-methoxybenzamide] it is 3.16 to 10 nM.
Take `COc1cc(C(=O)N[C@H]2CCCN(C)C2)ccc1Nc1ncc2c(n1)N(C1CCCC1)CC1(CC1)C(=O)N2C` [Compound 164, (S)-4-(9′-cyclopentyl-5′-methyl-6′-oxo-5′,6′,8′,9′-tetrahydrospiro-[cyclopropane-1,7′-pyrimido[4,5-b][1,4]diazepine]-2′-ylamino)-3-methoxy-N-(1-methylpiperidin-3-yl)benzamide]: the IC50 was 1 to 2.51 nM.
The figure for `C=CCC1CN(C2CCCCC2)c2nc(Nc3ccc(C(=O)N[C@H]4CCCN(C)C4)cc3OC)ncc2N(C)C1=O` (stereo partly drawn) [Compound 227, 4-(7-allyl-9-cyclohexyl-5-methyl-6-oxo-6,7,8,9-tetrahydro-5H-pyrimido[4,5-b][1,4]diazepin-2-ylamino)-3-methoxy-N-((S)-1-methylpiperidin-3-yl)benzamide] is greater than 10 nM; for `C=CC1(C)CN(C2CCCC2)c2nc(Nc3ccc(C(=O)NN4CCN(C)CC4)cc3OC)ncc2N(C)C1=O` (stereo not shown) [Compound 242, 4-(9-cyclopentyl-5,7-dimethyl-6-oxo-7-vinyl-6,7,8,9-tetrahydro-5H-pyrimido[4,5-b][1,4]diazepin-2-ylamino)-3-methoxy-N-(4-methylpiperazin-1-yl)benzamide] it is greater than 10 nM; for `COc1cc(C(=O)N[C@H]2CCCN(C)C2)ccc1Nc1ncc2c(n1)N(C1CCCCC1)CC1(CC1)C(=O)N2C` [Compound 171, (S)-4-(9′-cyclohexyl-5′-methyl-6′-oxo-5′,6′,8′,9′-tetrahydrospiro[cyclopropane-1,7′-pyrimido[4,5-b][1,4]diazepine]-2′-ylamino)-3-methoxy-N-(1-methylpiperidin-3-yl)-benzamide] it is less than 1 nM.
The figure for `COc1cc(C(=O)NN2CCN(C)CC2)ccc1Nc1ncc2c(n1)N(C1CCCCC1)CC1(CC1)C(=O)N2C` [Compound 170, 4-(9′-cyclohexyl-5′-methyl-6′-oxo-5′,6′,8′,9′-tetrahydrospiro[cyclopropane-1,7′-pyrimido[4,5-b][1,4]diazepine]-2′-ylamino)-3-methoxy-N-(4-methylpiperazin-1-yl)benzamide] is less than 1 nM; for `COc1cc(C(=O)N[C@H]2CCCN(C)C2)ccc1Nc1ncc2c(n1)N(C1CCCC1)CC(C)(C)C(=O)N2C` [Compound 99, (S)-4-(9-cyclopentyl-5,7,7-trimethyl-6-oxo-6,7,8,9-tetrahydro-5H-pyrimido[4,5-b][1,4]diazepin-2-ylamino)-3-methoxy-N-(1-methylpiperidin-3-yl)benzamide] it is less than 1 nM.
Take `COc1cc(C(=O)NN2CCOCC2)ccc1Nc1ncc2c(n1)N(C1CCCC1)CC(C)(C)C(=O)N2C` [Compound 104, 4-(9-cyclopentyl-5,7,7-trimethyl-6-oxo-6,7,8,9-tetrahydro-5H-pyrimido[4,5-b][1,4]diazepin-2-ylamino)-3-methoxy-N-morpholinobenzamide]: the IC50 was less than 1 nM.
In the case of `COc1cc(C(=O)N[C@@H]2CCCN(C)C2)ccc1Nc1ncc2c(n1)N(C1CCCCC1)CC1(CC1)C(=O)N2C` [Compound 172, (R)-4-(9′-cyclohexyl-5′-methyl-6′-oxo-5′,6′,8′,9′-tetrahydrospiro[cyclopropane-1,7′-pyrimido[4,5-b][1,4]diazepine]-2′-ylamino)-3-methoxy-N-(1-methylpiperidin-3-yl)benzamide] it was 1 to 2.51 nM; in that of `C=CC[C@H]1CN(C2CCCC2)c2nc(Nc3ccc(C(=O)N[C@@H]4CCCNC4)cc3OC)ncc2N(C)C1=O` [Compound 200, 4-((S)-7-allyl-9-cyclopentyl-5-methyl-6-oxo-6,7,8,9-tetrahydro-5H-pyrimido[4,5-b][1,4]diazepin-2-ylamino)-3-methoxy-N-((R)-piperidin-3-yl)benzamide], 1 to 2.51 nM.
Turning to `C=CCC1(C)CN(C2CCCC2)c2nc(Nc3ccc(C(=O)NC4CCN(C)CC4)cc3OC)ncc2N(C)C1=O` (stereo not shown) [Compound 221, 4-(7-allyl-9-cyclopentyl-5,7-dimethyl-6-oxo-6,7,8,9-tetrahydro-5H-pyrimido[4,5-b][1,4]diazepin-2-ylamino)-3-methoxy-N-(1-methylpiperidin-4-yl)benzamide], the IC50 is 1 to 2.51 nM.
The figure for `CCC#CCC1CN(C2CCCC2)c2nc(Nc3ccc(C(=O)NC4CCN(C)CC4)cc3OC)ncc2N(C)C1=O` (stereo not shown) [Compound 219, 4-(9-cyclopentyl-5-methyl-6-oxo-7-(pent-2-ynyl)-6,7,8,9-tetrahydro-5H-pyrimido[4,5-b][1,4]diazepin-2-ylamino)-3-methoxy-N-(1-methylpiperidin-4-yl)benzamide] is 3.16 to 10 nM; for `C=CC[C@H]1CN(C2CCCC2)c2nc(Nc3ccc(C(=O)N[C@H]4CCNC4)cc3OC)ncc2N(C)C1=O` [Compound 203, 4-((S)-7-allyl-9-cyclopentyl-5-methyl-6-oxo-6,7,8,9-tetrahydro-5H-pyrimido[4,5-b][1,4]diazepin-2-ylamino)-3-methoxy-N-((S)-pyrrolidin-3-yl)benzamide] it is 1 to 2.51 nM.
`C=CC1(C)CN(C2CCCC2)c2nc(Nc3ccc(C(=O)N[C@@H]4CCCNC4)cc3OC)ncc2N(C)C1=O` (stereo partly drawn) [Compound 245, 4-(9-cyclopentyl-5,7-dimethyl-6-oxo-7-vinyl-6,7,8,9-tetrahydro-5H-pyrimido[4,5-b][1,4]diazepin-2-ylamino)-3-methoxy-N-((R)-piperidin-3-yl)benzamide]: the IC50 is 3.16 to 10 nM.
The figure for `COc1cc(C(=O)N[C@H]2CCNC2)ccc1Nc1ncc2c(n1)N(C1CCCC1)CCC(=O)N2C` [Compound 40, (S)-4-(9-cyclopentyl-5-methyl-6-oxo-6,7,8,9-tetrahydro-5H-pyrimido[4,5-b][1,4]diazepin-2-ylamino)-3-methoxy-N-(pyrrolidin-3yl)benzamide] is greater than 10 nM; for `COc1cc(C(=O)N[C@H]2CCCNC2)ccc1Nc1ncc2c(n1)N(C1CCCC1)CC(C)(C)C(=O)N2C` [Compound 101, (S)-4-(9-cyclopentyl-5,7,7-trimethyl-6-oxo-6,7,8,9-tetrahydro-5H-pyrimido[4,5-b][1,4]diazepin-2-ylamino)-3-methoxy-N-(piperidin-3-yl)benzamide] it is 1 to 2.51 nM.
The figure for `COc1cc(C(=O)NC2CN(C)C2)ccc1Nc1ncc2c(n1)N(C1CCCCC1)CC1(CC1)C(=O)N2C` [Compound 173, 4-(9′-cyclohexyl-5′-methyl-6′-oxo-5′,6′,8′,9′-tetrahydrospiro[cyclopropane-1,7′-pyrimido[4,5-b][1,4]diazepine]-2′-ylamino)-3-methoxy-N-(1-methylazetidin-3-yl)benzamide] is 1 to 2.51 nM; for `COc1cc(C(=O)N[C@H]2CCCNC2)ccc1Nc1ncc2c(n1)N(C1CCCCC1)CC1(CC1)C(=O)N2C` [Compound 174, (S)-4-(9′-cyclohexyl-5′-methyl-6′-oxo-5′,6′,8′,9′-tetrahydrospiro[cyclopropane-1,7′-pyrimido[4,5-b][1,4]diazepine]-2′-ylamino)-3-methoxy-N-(piperidin-3-yl)benzamide] it is 1 to 2.51 nM; for `COc1cc(C(=O)N[C@H]2CCCNC2)ccc1Nc1ncc2c(n1)N(C1CCCC1)CCC(=O)N2C` [Compound 50, (S)-4-(9-cyclopentyl-5-methyl-6-oxo-6,7,8,9-tetrahydro-5H-pyrimido[4,5-b][1,4]diazepin-2-ylamino)-3-methoxy-N-(piperidin-3-yl)benzamide] it is greater than 10 nM.
The figure for `COc1cc(C(=O)N[C@H]2CCN(C)C2)ccc1Nc1ncc2c(n1)N(C1CCCC1)CCC(=O)N2C` [Compound 52, (S)-4-(9-cyclopentyl-5-methyl-6-oxo-6,7,8,9-tetrahydro-5H-pyrimido[4,5-b][1,4]diazepin-2-ylamino)-3-methoxy-N-(1-methylpyrrolidin-3-yl)benzamide] is greater than 10 nM; for `C=CC1(C)CN(C2CCCC2)c2nc(Nc3ccc(C(=O)NC4CN(C)C4)cc3OC)ncc2N(C)C1=O` (stereo not shown) [Compound 247, 4-(9-cyclopentyl-5,7-dimethyl-6-oxo-7-vinyl-6,7,8,9-tetrahydro-5H-pyrimido[4,5-b][1,4]diazepin-2-ylamino)-3-methoxy-N-(1-methylazetidin-3-yl)benzamide] it is 3.16 to 10 nM; for `COc1cc(C(=O)NC2CC(C)(C)N(C)C(C)(C)C2)ccc1Nc1ncc2c(n1)N(C1CCCC1)CCC(=O)N2C` [Compound 80, 4-(9-cyclopentyl-5-methyl-6-oxo-6,7,8,9-tetrahydro-5H-pyrimido[4,5-b][1,4]diazepin-2-ylamino)-3-methoxy-N-(1,2,2,6,6-pentamethylpiperidin-4-yl)benzamide] it is 3.16 to 10 nM.
